Laboratory results taken from ChEMBL document CHEMBL1128584, “Prediction of drug binding affinities by comparative binding energy analysis” (J Med Chem, 1995).

Biological target: T1, Phospholipase A2, membrane associated (Homo sapiens) (UniProt P14555)
T1 sequence (whole entry): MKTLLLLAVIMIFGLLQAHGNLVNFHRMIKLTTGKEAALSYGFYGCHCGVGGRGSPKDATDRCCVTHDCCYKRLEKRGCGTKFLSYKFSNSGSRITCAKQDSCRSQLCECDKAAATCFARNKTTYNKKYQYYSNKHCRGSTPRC
Experiment: Inhibitory activity against human synovial fluid phospholipase A2 (HSF-PLA2)
Parameters: concentration or dose not given beside the values
Conditions: concentration not given here

| SMILES | inhibition [%] |
| --- | --- |
| CCCCCCCCOCC(COP(=O)(O)OCC[N+](C)(C)C)OP(=O)(O)CCCCCCC (stereo not given) | 9 |
| CCCCCCCCCCS(=O)(=O)CC(CCCCCC)COP(=O)(O)OCCOCc1ccccc1 (stereo in doubt; form 1) | 29 |
| CCCCCCCCCCS(=O)(=O)NC(CCCCCC)COP(=O)(O)CCCC (stereo not given) | 30 |
| CCCCCCCCCCCC(=O)NC(CCCCCC)COP(=O)(O)OCCO (stereo not given) | 61 |
| CCCCCCCCCCCC(=O)NC(CCCCCC)COP(=O)(O)OCC(N)C(=O)O (stereo not given) | 31 |
| CCCCCCCCCCC(=O)NC(CCCCCC)COP(=O)(O)OCCN (stereo not given) | 28 |
| CCCCCCCCCCS(=O)(=O)NC(CCCCCC)COP(=O)(O)OCCO (stereo in doubt; form 1) | 49 |
| CCCCCCCCCCCC(=O)NC(CCCCCC)COP(=O)(O)OCCOCc1ccccc1 (stereo not given) | 6 |
| CCCCCCCCCCCC(=O)NC(CCCCCC)COP(=O)(O)CCCC (stereo not given) | 45 |
| CCCCCCCCCCS(=O)(=O)NC(CCCCCC)COP(=O)(O)OCCOCc1ccccc1 (stereo in doubt; form 1) | 12 |
| CCCCCCCCCCS(=O)(=O)N[C@H](CCCCCC)COP(=O)(O)OCCOCc1ccccc1 (stereo in doubt; form 1) | 45 |
| CCCCCCCCCCS(=O)(=O)N[C@H](CCCCCC)COP(=O)(O)OCCOCc1ccccc1 (stereo in doubt; form 2) | 46 |
| CCCCCCCCCCS(=O)(=O)NC(CCCCCC)COP(=O)(O)OCCO (stereo in doubt; form 2) | 44 |
| CCCCCCCCCCS(=O)(=O)NC(CCCCCC)COP(=O)(O)OCCN (stereo not given) | 4 |

Results, then the compound that gave them:

| inhibition [%] | SMILES |
| --- | --- |
| 79 | CCCCCCCCCCS(=O)(=O)CC(CCCCCC)COP(=O)(O)OCCOCc1ccccc1 (stereo in doubt; form 2) |
| 0 | CCCCCCCCCCS(=O)(=O)NC(CCCCCC)COP(=O)(O)OCCCC (stereo not given) |
| 28 | CCCCCCCCCCS(=O)(=O)NC(CCCCCC)COS(=O)(=O)CCCOCc1ccccc1 (stereo not given) |
| 24 | CCCCCCCCCCCC(=O)NC(CCCCCC)COP(=O)(CCCC)OC (stereo not given) |
| 40 | CCCCCCCCCCS(=O)(=O)N[C@H](CCCCCC)COP(=O)(O)OCCO |
| 36 | CCCCCCCCCCS(=O)(=O)NC(CCCCCC)COP(=O)(O)OCCOCc1ccccc1 (stereo in doubt; form 2) |
| 80 | CCCCCCCCCCCC(=O)NC(CCCCCC)COP(=O)(O)OCCCC (stereo not given) |
| 74 | CCCCCCCCCCS(=O)(=O)N[C@H](CCCCCC)COP(=O)(O)OCCOCc1ccccc1 (stereo in doubt; form 3) |
| 24 | CCCCCCCCCCS(=O)(=O)NC(CCc1ccccc1)COP(=O)(O)OCCOCc1ccccc1 (stereo not given) |
| 0 | CCCCCCCCCCS(=O)(=O)NC(CCCCCC)COCC(F)(F)F (stereo not given) |
| 33 | CCCCCCCCOCC(COP(=O)(O)OCCN)OP(=O)(O)CCCCCCC (stereo not given) |
